In patent US7001913B1, “Aminopiperidine derivatives as antibacterials” (SmithKline Beecham P.L.C., priority 1999, dated 2006):

Tested on: S. aureus Oxford, S. aureus WCUH29, S. pneumoniae 1629, S. pneumoniae N1387, S. pneumoniae ERY 2
Test: MIC of test compounds against various organisms
Type: cell-based
Conditions: against one or more of S. aureus Oxford
Method: The MIC (μg/ml) of test compounds against various organisms was determined: S. aureus Oxford, S. aureus WCUH29, S. pneumoniae 1629, S. pneumoniae N1387, S. pneumoniae ERY 2.

CCCCCCCNC1CCN(C[C@H](O)c2ccnc3ccc(OC)cc23)CC1C(N)=O (mixture of isomers) [Example 4, cis-3-(R/S)-Aminocarbonyl-4-(S/R)-heptylamino-1-[2-(R)-hydroxy-2-(6-methoxyquinolin-4-yl)]ethylpiperidine dioxalate]
MIC: ≤ 1 µg/mL
